Reference: patent US20140336182A1, “Aurora Kinase Modulators and Method of Use” (Amgen Inc., priority 2013, published 2014)

system: HeLa cells; assay: HeLa cell 24 hr ploidy assay (DNA content); format: cell-based; details: HeLa cells, 4N ploidy, average, read-out: 24h_4NPloidy EC50_IP (uM Avg)
In short: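 DNA content measured by Hoechst 33342 nuclear staining (0.5 ug/ml, 45 min RT) and high-content imaging of fixed HeLa cells after 24 h compound exposure in 0.25% DMSO. Fractions of 4N and >4N cells fitted to dose curves giving EC50 IP, EC50 transit, Max and Min.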

Row | Compound | EC50 [µM]
1 | COc1cnc2c(Sc3ccc(Nc4nnc(N5CCN6CCCC[C@@H]6C5)c5ccccc45)cc3)ccnc2c1 [compound 584] | 0.005

same assay, conditions: Homo sapiens, HeLa, 4N ploidy, average, read-out: 24h_4NPloidy EC50_IP (uM Avg)

Row | EC50 [µM] | Compound
2 | > 1.2 | COc1ccccc1-c1nnc(Nc2ccc(Oc3ccnc4cc(C#N)ccc34)cc2)c2ccccc12 [compound 119]
3 | 0.009 | COc1cccc(-c2nnc(Nc3ccc(Oc4ccnc5cc(OC)c(OC)cc45)cc3)c3ccccc23)n1 [compound 101]
4 | 0.323 | COc1cnc2c(Oc3ccc(Nc4nnc(-c5cccc(COC(C)=O)n5)c5ccccc45)cc3)ccnc2c1 [compound 132]
5 | 0.054 | COc1cnc2c(Oc3ccc(Nc4nnc(N5CCN6CCCC6C5)c5ccccc45)cc3)ccnc2c1 (centres unmarked) [compound 92]
6 | 0.033 | COc1cc2nccc(Oc3ccc(Nc4nnc(-c5ccc(C(C)(C)C)cc5)c5ccccc45)cc3)c2cc1OC [compound 106]

The remaining lines, values behind:

Row | Compound | EC50 [µM]
7 | COc1cnc2c(Oc3ccc(Nc4nnc(-c5ccc(C(C)(C)C)cc5)c5ccccc45)cc3)ccnc2c1 [Example 38, 4-(4-tert-butylphenyl)-N-(4-(7-methoxy-1,5-naphthyridin-4-yloxy)phenyl)phthalazin-1-amine] | 0.08
8 | Cc1ccc(-c2nnc(Nc3ccc(Oc4ccnc5cc(C#N)ccc45)cc3)c3ccccc23)s1 [compound 162] | 0.004
9 | COc1cnc2c(Oc3ccc(Nc4nnc(-c5cccc(C#N)c5)c5ccccc45)cc3)ccnc2c1 [Example 29, 3-(4-(4-(7-methoxy-1,5-naphthyridin-4-yloxy)phenylamino)phthalazin-1-yl)benzonitrile] | 0.442
10 | NC(=O)c1cc2nccc(Oc3ccc(Nc4nnc(-c5ccccc5)c5ccccc45)cc3F)c2s1 [compound 78] | 0.031
11 | CCc1cc(-c2ccccc2)nnc1Nc1ccc(Oc2ccnc3cc(OC)cnc23)nc1 [compound 83, 4-ethyl-N-(6-((7-(methyloxy)-1,5-naphthyridin-4-yl)oxy)-3-pyridinyl)-6-phenyl-3-pyridazinamine] | 0.349
12 | COCc1cccc(-c2nnc(Nc3ccc(Oc4ccnc5cc(OC)cnc45)cc3)c3ccccc23)n1 [compound 120] | 0.305

same assay, conditions: Homo sapiens, HeLa, HeLa cells, 4N ploidy, average, read-out: 24h_4NPloidy EC50_IP (uM Avg)

Row | EC50 [µM] | Compound
13 | 0.001 | COc1ccc2nccc(Oc3ccc(Nc4nnc(-c5ccc(Cl)cc5)c5ccccc45)cc3)c2c1 [compound 239]
14 | 0.22 | CNC(=O)c1cc(Oc2ccc(Nc3nnc(-c4ccc(Cl)cc4)c4ccccc34)cc2)ccn1 [compound 361]
15 | 0.115 | Clc1ccc(-c2nnc(Nc3ccc(Oc4ncnc5ccsc45)cc3)c3ccccc23)cc1 [compound 591]
16 | 0.014 | COc1ccc2nccc(Sc3ccc(Nc4nnc(-c5ccc(Cl)cc5)c5ccccc45)cc3)c2c1 [compound 315, 4-(4-chlorophenyl)-N-(4-(6-methoxyquinolin-4-ylthio)phenyl)phthalazin-1-amine]
17 | 0.413 | CNC(=O)c1cc(Sc2ccc(Nc3nnc(-c4ccc(Cl)cc4)c4ccccc34)cc2)ccn1 [compound 360]
18 | 0.024 | COc1cnc2c(Sc3ccc(Nc4nnc(-c5ccccc5F)c5ccccc45)cc3)ccnc2c1 [compound 495]
19 | 0.828 | Cc1noc(-c2cc3nccc(Oc4ccc(Nc5nnc(-c6ccccc6)c6ccccc56)cc4)c3s2)n1 [compound 288]
20 | 0.202 | CCc1cc(-c2ccc3c(c2)OCO3)nnc1Nc1ccc(Oc2ccnc3cc(OC)cnc23)cc1 [compound 594]
21 | < 0.0023 | COCCn1ccc2nccc(Sc3ccc(Nc4nnc(-c5cc(C)cs5)c5ccccc45)cc3)c21 [compound 470]
22 | 0.087 | COc1cnc2c(Oc3ccc(Nc4nnc(-c5ccc6c(c5)OCCO6)c5ccccc45)cc3)ccnc2c1 [compound 166]
23 | 0.049 | COc1cnc2c(Sc3ccc(Nc4nnc(N5CCC(F)(F)CC5)c5ccccc45)cc3)ccnc2c1 [compound 531]
24 | 0.052 | Cc1csc(-c2nnc(Nc3ccc(Sc4ccnc5cc(OC(F)(F)F)ccc45)cc3)c3ccccc23)c1 [compound 499]
25 | 0.019 | Cc1ccc(-c2nnc(Nc3ccc(Sc4ccnc5cc(C#N)sc45)cc3)c3ccccc23)cn1 [compound 461]
26 | 0.25 | Cc1noc(-c2cc3nccc(Sc4ccc(Nc5nnc(-c6ccccc6)c6ccccc56)cc4)c3s2)n1 [compound 303, N-(4-((2-(3-methyl-1,2,4-oxadiazol-5-yl)thieno[3,2-b]pyridin-7-yl)thio)phenyl)-4-phenyl-1-phthalazinamine]
27 | 0.003 | Clc1ccc(-c2nnc(Nc3ccc(Sc4ccnc5ccccc45)cc3)c3ccccc23)nc1 [compound 365]
28 | 0.009 | Cc1ccc(-c2nnc(Nc3ccc(Sc4ccnc5ccoc45)cc3)c3ccccc23)cc1F [Example 398, 4-(3-Fluoro-4-methylphenyl)-N-(4-(furo[3,2-b]pyridin-7-ylthio)phenyl)phthalazin-1-amine]
29 | 0.043 | c1ccc(-c2nnc(Nc3ccc(Sc4ccnc5cc[nH]c45)cc3)c3ccccc23)cc1 [compound 462]
30 | 0.022 | COc1cnc2c(Oc3ccc(Nc4nnc(-c5ccc(Cl)c(Cl)c5)c5ccccc45)cc3)ccnc2c1 [compound 201, 4-(3,4-dichlorophenyl)-N-(4-((7-(methyloxy)-1,5-naphthyridin-4-yl)oxy)phenyl)-1-phthalazinamine]
31 | 0.023 | N#Cc1ccc2c(Sc3ccc(Nc4nnc(-c5ccccc5)c5ccccc45)cc3)ccnc2c1 [compound 208]
32 | 0.036 | COc1cnc2c(Oc3ccc(Nc4nnc(-c5ccc(F)cc5)c5ccccc45)cc3)ccnc2c1 [compound 220, 4-(4-fluorophenyl)-N-(4-((7-(methyloxy)-1,5-naphthyridin-4-yl)oxy)phenyl)-1-phthalazinamine]
33 | 0.06 | COc1cc2c(Oc3ccc(Nc4nnc(-c5ccccc5)c5ccccc45)cc3)ccnc2cc1OCc1ccccc1 [compound 326]
34 | 0.002 | COc1ccc2nccc(Oc3ccc(Nc4nnc(-c5ccc6c(c5)OCO6)c5ccccc45)cc3)c2n1 [compound 551]
35 | 0.021 | COc1ccc2c(Oc3ccc(Nc4nnc(-c5ccccc5)c5c4CCC5)cc3)ccnc2c1 [compound 368]
36 | 0.088 | Cc1noc(-c2cc3nccc(Oc4ccc(Nc5nnc(-c6ccc(Cl)cc6)c6ccccc56)cc4)c3s2)n1 [compound 286]
37 | 0.011 | Cn1cncc1-c1cc2nccc(Oc3ccc(Nc4nnc(-c5ccccc5)c5ccccc45)cc3)c2s1 [compound 202, N-(4-((2-(1-methyl-1H-imidazol-5-yl)thieno[3,2-b]pyridin-7-yl)oxy)phenyl)-4-phenyl-1-phthalazinamine]
38 | 0.191 | COc1cnc2c(Oc3ccc(Nc4nnc(-c5ncc(C)s5)c5ccccc45)cc3)ccnc2c1 [compound 189]
39 | 0.039 | COc1ccc2nccc(Oc3ccc(Nc4nnc(-c5ccccc5)c5ccccc45)cc3)c2n1 [compound 347]
40 | 0.027 | COc1cnc2c(Oc3ccc(Nc4nnc(-c5ccc(F)c(Cl)c5)c5ccccc45)cc3)ccnc2c1 [compound 193, 4-(3-chloro-4-fluorophenyl)-N-(4-((7-(methyloxy)-1,5-naphthyridin-4-yl)oxy)phenyl)-1-phthalazinamine]

Second part, the compound before the results:

Row | Compound | EC50 [µM]
41 | Clc1ccc(-c2nnc(Nc3ccc(Oc4ncnc5[nH]ccc45)cc3)c3ccccc23)cc1 [compound 290] | 0.397
42 | COc1cnc2c(Oc3ccc(Nc4nnc(-c5cc(Cl)cs5)c5ccccc45)cc3)ccnc2c1 [compound 316] | 0.027
43 | COc1cnc2c(Sc3ccc(Nc4nnc(-c5ccc(F)cc5)c5ccccc45)cc3)ccnc2c1 [compound 356, 4-(4-fluorophenyl)-N-(4-(7-methoxy-1,5-naphthyridin-4-ylthio)phenyl)phthalazin-1-amine] | 0.007
44 | c1ccc2c(Sc3ccc(Nc4nnc(-c5ccc6c(c5)OCO6)c5ccccc45)cc3)ccnc2c1 [compound 517] | 0.011
45 | Cn1cncc1-c1cc2nccc(Oc3ccc(Nc4nnc(-c5ccc(Cl)cc5)c5ccccc45)cc3)c2s1 [compound 249] | 0.008
46 | COc1cc2nncc(Oc3ccc(Nc4nnc(-c5ccc(Cl)cc5)c5ccccc45)cc3)c2cc1OC [compound 282] | ≥ 1.2
47 | COc1cnc2c(Oc3ccc(Nc4nnc(-c5ccc(C)c(N)c5)c5cc(F)c(F)cc45)cc3)ccnc2c1 [compound 545] | 0.012
48 | COc1cnc2c(Oc3ccc(Nc4nnc(-c5csc6ccccc56)c5ccccc45)cc3)ccnc2c1 [compound 169] | 0.027
49 | Cc1csc(-c2nnc(Nc3ccc(Sc4ccnc5ccn(C(C)C)c45)cc3)c3ccccc23)c1 [compound 472] | 0.007
50 | Clc1ccc(-c2nnc(Nc3ccc(Sc4ccnc5[nH]cnc45)cc3)c3ccccc23)cc1 [compound 363] | 0.032
51 | Cc1ccc(-c2ccc3c(Oc4ccc(Nc5nnc(-c6ccccc6)c6ccccc56)cc4)ccnc3c2)o1 [compound 344] | 0.044
52 | COc1cnc2c(Oc3ccc(Nc4nnc(N5CC[C@H]6CCCC[C@@H]6C5)c5ccccc45)cc3)ccnc2c1 [compound 586] | 0.028
53 | COc1cc2nccc(Oc3ccc(Nc4nnc(-c5ccc(C)cc5)c5ccccc45)cc3)c2cc1C(N)=O [compound 211] | 0.002
54 | COc1ccc2nccc(Sc3ccc(Nc4nnc(-c5ccccc5)c5ccccc45)cc3)c2c1 [compound 292, N-(4-((6-(methyloxy)-4-quinolinyl)thio)phenyl)-4-phenyl-1-phthalazinamine] | 0.012
55 | Clc1ccc(-c2nnc(Nc3ccc(Sc4ccnc5[nH]ncc45)cc3)c3ccccc23)cc1 [compound 359] | 0.013
56 | COc1cnc2c(Oc3ccc(Nc4nnc(-c5ccc(C(N)=O)cc5)c5ccccc45)cc3)ccnc2c1 [compound 177] | > 1.2
57 | COc1cnc2c(Sc3ccc(Nc4nnc(N5CCN(C)CC5)c5ccccc45)cc3)ccnc2c1 [compound 503] | 0.014
58 | CCc1cc(-c2ccc(C)cc2)nnc1Nc1ccc(Sc2ccnc3cccnc23)cc1 [compound 358] | 0.035

same assay, conditions: Homo sapiens, HeLa, HeLa cells, 4N ploidy, given as class symbol, read-out: 24h_4NPloidy EC50_IP (uM Avg)

Row | Compound | EC50 [µM]
59 | c1ccc(-c2nnc(Nc3ccc(Sc4ccnc5ccccc45)cc3)c3ccccc23)cc1 [compound 294] | < 0.1
